The target of this assay is PARP7 (Homo sapiens (Human), UniProt Q7Z3E1). In words: Enzymatic assay for inhibition of PARP7: TR-FRET displacement of biotinylated Probe A from the TIPARP active site. In kind it is binding. Particulars: Table A-1. An outline of the steps: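 Compounds were tested as dose-response series, and reactions were incubated a further 30 min at 25° C. TR-FRET was read at 320 nm excitation with 615 and 665 nm emission after a 90 μs delay. The 665/615 ratio gave the TIPARP–Probe A complex, and % inhibition was fitted against concentration.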
(In TR-FRET formats the signal depends on donor and acceptor labels being close together.)

For orientation: IC50 means the concentration needed to halve the response being measured. Low values mean greater potency, high ones weaker potency.

Sequence of PARP7 (Q7Z3E1 whole entry): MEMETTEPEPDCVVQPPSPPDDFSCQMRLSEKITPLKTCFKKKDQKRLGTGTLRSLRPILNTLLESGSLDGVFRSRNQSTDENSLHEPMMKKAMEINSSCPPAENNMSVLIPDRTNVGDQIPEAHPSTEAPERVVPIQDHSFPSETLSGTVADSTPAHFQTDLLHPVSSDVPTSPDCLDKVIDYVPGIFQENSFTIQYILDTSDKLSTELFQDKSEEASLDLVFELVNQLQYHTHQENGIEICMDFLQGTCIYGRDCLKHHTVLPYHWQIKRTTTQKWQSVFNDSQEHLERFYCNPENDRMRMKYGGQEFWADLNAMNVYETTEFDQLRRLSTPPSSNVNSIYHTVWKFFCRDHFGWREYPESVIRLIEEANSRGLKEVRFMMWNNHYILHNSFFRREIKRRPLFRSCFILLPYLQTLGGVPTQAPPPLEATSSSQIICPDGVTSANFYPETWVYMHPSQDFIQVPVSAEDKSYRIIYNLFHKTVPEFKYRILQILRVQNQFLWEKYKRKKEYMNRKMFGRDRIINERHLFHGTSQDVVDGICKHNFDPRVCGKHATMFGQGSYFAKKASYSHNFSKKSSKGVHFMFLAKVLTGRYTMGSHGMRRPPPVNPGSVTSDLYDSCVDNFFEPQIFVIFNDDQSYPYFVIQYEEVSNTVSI

In the case of `N#Cc1ccc(N2CCN(C(=O)C[C@H]3CC[C@H](COc4cn[nH]c(=O)c4Cl)O3)CC2)nc1` (single isomer, unassigned) [Example 582 Isomer B], the IC50 was in the range of 100 to 1000 nM. The same measure for `N#Cc1ccc(N2CCN(C(=O)C[C@@H]3CCC[C@@H](COc4cn[nH]c(=O)c4C(F)(F)F)O3)CC2)nc1` (single isomer, unassigned) [Example 583 Isomer A]: under 100 nM; for `N#Cc1ccc(N2CCN(C(=O)C[C@H]3CCC[C@H](COc4cn[nH]c(=O)c4C(F)(F)F)O3)CC2)nc1` (single isomer, unassigned) [Example 583 Isomer B]: at least 1000 nM. `CC[C@@H](COCCC(=O)N1CCN(c2ncc(Cl)cn2)CC1)Oc1cn[nH]c(=O)c1C(F)(F)F` (single isomer, unassigned) [Example 591 Isomer A] came in with an IC50 of under 100 nM. Consider `N#Cc1ccc(N2CCN(C(=O)C[C@H]3CC[C@@H]([C@H]4c5ccccc5CN4c4cn[nH]c(=O)c4C(F)(F)F)O3)CC2)nc1` (single isomer, unassigned) [Example 612 Isomer A], for which the IC50 was under 100 nM. With `N#Cc1ccc(N2CCN(C(=O)C[C@H]3CC[C@@H]([C@@H]4c5ccccc5CN4c4cn[nH]c(=O)c4C(F)(F)F)O3)CC2)nc1` (single isomer, unassigned) [Example 612 Isomer B] the figure was under 100 nM; with `N#Cc1ccc(N2CCN(C(=O)C[C@H]3CC[C@H]([C@@H]4c5ccccc5CN4c4cn[nH]c(=O)c4C(F)(F)F)O3)CC2)nc1` (single isomer, unassigned) [Example 612 Isomer C], at least 1000 nM; with `N#Cc1ccc(N2CCN(C(=O)C[C@@H]3CC[C@@H]([C@H]4c5ccccc5CN4c4cn[nH]c(=O)c4C(F)(F)F)O3)CC2)nc1` (single isomer, unassigned) [Example 612 Isomer D], at least 1000 nM.

The compound `O=C(CCOC[C@@H](Nc1cn[nH]c(=O)c1C(F)(F)F)[C@@H]1CCOC1)N1CCN(c2ncc(C(F)(F)F)cn2)CC1` (single isomer, unassigned) [Example 614 Isomer A] had a 50% inhibitory concentration (IC50) of at least 1000 nM. The same measure for `O=C(CCOC[C@H](Nc1cn[nH]c(=O)c1C(F)(F)F)[C@H]1CCOC1)N1CCN(c2ncc(C(F)(F)F)cn2)CC1` (single isomer, unassigned) [Example 614 Isomer B]: under 100 nM. `C[C@@H](COC[C@H](N)CC(=O)N1CCN(c2ncc(C(F)(F)F)cn2)CC1)Nc1cn[nH]c(=O)c1C(F)(F)F` (single isomer, unassigned) [Example 617 Isomer A] gave an IC50 of under 100 nM.

The compound `C[C@@H](COC[C@@H](N)CC(=O)N1CCN(c2ncc(C(F)(F)F)cn2)CC1)Nc1cn[nH]c(=O)c1C(F)(F)F` (single isomer, unassigned) [Example 617 Isomer B] returned an IC50 of under 100 nM. With `C[C@@H](COCCC(=O)N1CCN(c2ncc(C(F)(F)F)cn2)C[C@@H]1C)Nc1cn[nH]c(=O)c1C(F)(F)F` (single isomer, unassigned) [Example 619 Isomer A] the figure was under 100 nM. With `C[C@@H]1CN(c2ncc(C(F)(F)F)cn2)CCN1C(=O)CCOC[C@H](C)Nc1cn[nH]c(=O)c1C(F)(F)F` (single isomer, unassigned) [Example 619 Isomer B] the figure was under 100 nM; with `COC[C@H](COCCC(=O)N1CCN(c2ncc(C(F)(F)F)cn2)CC1)Sc1cn[nH]c(=O)c1C(F)(F)F` (single isomer, unassigned) [Example 692], 100 to 1000 nM; with `N#Cc1ccc(N2CCN(C(=O)C/C=C\OC[C@@H]3c4ccccc4CN3c3cn[nH]c(=O)c3C(F)(F)F)CC2)nc1` (single isomer, unassigned; isomer a) [Example 79 Isomer A], under 100 nM. With `O=C(COC[C@@H]1CCCN1c1cn[nH]c(=O)c1C(F)(F)F)N[C@H]1CC[C@H](Nc2ccccn2)CC1` (single isomer, unassigned; isomer a) [Example 80 Isomer A] the figure was 100 to 1000 nM; with `O=C(CCOC[C@@H]1CCCN1c1cn[nH]c(=O)c1C(F)(F)F)NC1CCC(Nc2ccccn2)CC1` (single isomer, unassigned; isomer a) [Example 81 Isomer A], 100 to 1000 nM.

`N#Cc1ccc(N2CCN(C(=O)[C@H]3CC[C@H](OC[C@@H]4CCCN4c4cn[nH]c(=O)c4C(F)(F)F)CC3)CC2)nc1` (single isomer, unassigned; isomer a) [Example 82 Isomer A] showed an IC50 of under 100 nM. With `N#Cc1ccc(N2CCN(C(=O)C3CC(OC[C@@H]4CCCN4c4cn[nH]c(=O)c4C(F)(F)F)C3)CC2)nc1` (single isomer, unassigned; isomer a) [Example 95 Isomer A] the figure was under 100 nM; with `N#Cc1ccc(N2CCN(C(=O)C/C=C\OC[C@H]3c4ccccc4CN3c3cn[nH]c(=O)c3C(F)(F)F)CC2)nc1` (single isomer, unassigned; isomer b) [Example 79 Isomer B], under 100 nM. With `O=C(COC[C@@H]1CCCN1c1cn[nH]c(=O)c1C(F)(F)F)NC1CCC(Nc2ccccn2)CC1` (single isomer, unassigned; isomer b) [Example 80 Isomer B] the figure was 100 to 1000 nM; with `O=C(CCOC[C@@H]1CCCN1c1cn[nH]c(=O)c1C(F)(F)F)N[C@H]1CC[C@@H](Nc2ccccn2)CC1` (single isomer, unassigned; isomer b) [Example 81 Isomer B], at least 1000 nM. With `N#Cc1ccc(N2CCN(C(=O)[C@H]3CC[C@@H](OC[C@@H]4CCCN4c4cn[nH]c(=O)c4C(F)(F)F)CC3)CC2)nc1` (single isomer, unassigned; isomer b) [Example 82 Isomer B] the figure was 100 to 1000 nM; with `O=C(CCOC[C@@H](Nc1cn[nH]c(=O)c1C(F)(F)F)[C@H]1CCOC1)N1CCN(c2ncc(C(F)(F)F)cn2)CC1` (single isomer, unassigned; isomer c) [Example 614 Isomer C], under 100 nM. The compound `N#Cc1ccc(N2CC3CN(C(=O)CCOC[C@@H]4CCCN4c4cn[nH]c(=O)c4C(F)(F)F)CC3C2)nc1` (stereo in doubt) [Example 113, (S)-6-[5-(3-[[1-[6-oxo-5-(trifluoromethyl)-1,6-dihydropyridazin-4-yl]pyrrolidin-2-yl]methoxy]propanoyl)-octahydropyrrolo[3,4-c]pyrrol-2-yl]pyridine-3-carbonitrile] gave an IC50 of under 100 nM. With `CC(=O)N1CCC(Oc2cc3c(cc2F)CN(c2cn[nH]c(=O)c2C(F)(F)F)C3)CC1` [Example 1, 5-[5-[(1-acetylpiperidin-4-yl)oxy]-6-fluoro-2,3-dihydro-1 H-isoindol-2-yl]-4-(trifluoromethyl)-2,3-dihydropyridazin-3-one] the figure was under 100 nM; with `CC(=O)N1CCC(Oc2ccc(F)c3c2CN(c2cn[nH]c(=O)c2C(F)(F)F)C3)CC1` [Example 2, 5-[4-[(1-acetylpiperidin-4-yl)oxy]-7-fluoro-2,3-dihydro-1H-isoindol-2-yl]-4-(trifluoromethyl)-2,3-dihydropyridazin-3-one], under 100 nM. With `O=c1[nH]ncc(N2Cc3cc(OC4CCNCC4)cc(F)c3C2)c1C(F)(F)F` [Example 3, 5-[4-fluoro-6-(piperidin-4-yloxy)-2,3-dihydro-1H-isoindol-2-yl]-4-(trifluoromethyl)-2,3-dihydropyridazin-3-one; formic acid] the figure was under 100 nM; with `CC(=O)N1CCC(Oc2cc(F)c3c(c2)CN(c2cn[nH]c(=O)c2C(F)(F)F)C3)CC1` [Example 4, 5-[6-[(1-acetylpiperidin-4-yl)oxy]-4-fluoro-2,3-dihydro-1H-isoindol-2-yl]-4-(trifluoromethyl)-2,3-dihydropyridazin-3-one], under 100 nM; with `CC(=O)N1CCC(Oc2cc3c(cc2F)CN(c2cn[nH]c(=O)c2C(F)(F)F)C3C)CC1` (centres unmarked) [Example 5, 5-[6-[(1-acetylpiperidin-4-yl)oxy]-5-fluoro-1-methyl-2,3-dihydro-1H-isoindol-2-yl]-4-(trifluoromethyl)-2,3-dihydropyridazin-3-one], 100 to 1000 nM. The same measure for `CN1CCC(Oc2ccc3c(n2)CN(c2cn[nH]c(=O)c2C(F)(F)F)C3)CC1` [Example 6, 5-[2-[(1-methylpiperidin-4-yl)oxy]-5H,6H,7H-pyrrolo[3,4-b]pyridin-6-yl]-4-(trifluoromethyl)-2,3-dihydropyridazin-3-one]: 100 to 1000 nM. Compound `O=c1[nH]ncc(N2Cc3cc(OC4CCNCC4)cnc3C2)c1C(F)(F)F` [Example 7, 5-[3-(piperidin-4-yloxy)-5H,6H,7H-pyrrolo[3,4-b]pyridin-6-yl]-4-(trifluoromethyl)-2,3-dihydropyridazin-3-one] returned an IC50 of 100 to 1000 nM. The same measure for `CC(=O)N1CCC(Oc2cnc3c(c2)CN(c2cn[nH]c(=O)c2C(F)(F)F)C3)CC1` [Example 8, 5-[3-[(1-acetylpiperidin-4-yl)oxy]-5H,6H,7H-pyrrolo[3,4-b]pyridin-6-yl]-4-(trifluoro-methyl)-2,3-dihydropyridazin-3-one]: 100 to 1000 nM.

Compound `O=c1[nH]ncc(N2Cc3nccc(OC4CCNCC4)c3C2)c1C(F)(F)F` [Example 9, 5-[4-(piperidin-4-yloxy)-5H,6H,7H-pyrrolo[3,4-b]pyridin-6-yl]-4-(trifluoromethyl)-2,3-dihydropyridazin-3-one] yielded an IC50 of 100 to 1000 nM. The same measure for `O=c1[nH]ncc(N2Cc3nccc(OCCN4CCOCC4)c3C2)c1C(F)(F)F` [Example 10, 5-[4-[2-(morpholin-4-yl)ethoxy]-5H,6H,7H-pyrrolo[3,4-b]pyridin-6-yl]-4-(trifluoromethyl)-2,3-dihydropyridazin-3-one]: 100 to 1000 nM; for `COc1cc2c(cn1)CN(c1cn[nH]c(=O)c1C(F)(F)F)C2` [Example 11, 5-[6-methoxy-1H,2H,3H-pyrrolo[3,4-c]pyridin-2-yl]-4-(trifluoromethyl)-2,3-dihydropyridazin-3-one]: under 100 nM. With `O=c1[nH]ncc(N2Cc3cnc(OC4CCNCC4)cc3C2)c1C(F)(F)F` [Example 12, 5-[6-(piperidin-4-yloxy)-1H,2H,3H-pyrrolo[3,4-c]pyridin-2-yl]-4-(trifluoromethyl)-2,3-dihydropyridazin-3-one] the figure was 100 to 1000 nM.
